Measured values as given in patent publication US20110160266A1, “Novel Anti-Arrhythmia Agent” (THE UAB RESEARCH FOUNDATION, priority 2008, published 2011).
Entries after “also recorded” stand apart in the source; their conditions may differ. Marks after values point to notes of the source that are not given here.

Tests used:
[1] = tested on: isolated rat left atria; assay: Pharmacological activation of spontaneous tachycardic activity (STA): calcium-loading agents with or without 2-APB; conditions: for ectopic activity / mechanical stability without 2-APB / effect on left atrial force of contraction: agent without 2-APB, at the concentration given; for T0.5R (time to 50% relaxation) / T0.9R (time to 90% relaxation) / TPT (time to peak tension) / SMA Rate: concentrations per footnote; for Force Post: mg force per g atrial wet weight following a 10 min exposure to the agent; for Force Pre: mg force per g atrial wet weight prior to exposure to the agent; for SMA Rate: spontaneous atrial mechanical events
Experimental: Male Sprague-Dawley rats (325-400 g) were anesthetized with intra-peritoneal pentobarbital (0.1 g/kg). Their right and left atria were isolated, superfused at 30° C. in Krebs-Henseleit buffer, and nearly isometric forces of contraction were measured from these muscles (Wolkowicz et al., 2002). 2-APB was prepared as a 150 mM dimethyl sulfoxide stock.
Left atria (n=8 per group) were paced at 3 Hz and (i) titrated with 0 to 30 nM isoproterenol (Ahlquist, 1970) or (ii) exposed to 3 μM forskolin (Laurenza et al., 1980). Left atrial force and frequency of contraction, the time to peak tension and relaxation times were recorded after a 3-5 min exposure to forskolin or to any concentration of isoproterenol. The 3 Hz pacing stimulus was interrupted at the end of these protocols to measure SMA. […]
Left atrial contraction and relaxation times were recorded at these five times, the pacing stimulus was stopped and rates of SMA were recorded. […] Atrial mechanical function was measured at these four times; the pacing stimulus then was stopped and rates of SMA were recorded.
Left atria (n=6 per group) were paced at 3 Hz, titrated with 0 to 300 nM (−)BayK 8644 ([…]-1,4-Dihydro-2,6-dimethyl-5-nitro-4-[2-(trifluormethyl)phenyl]-3-pyridinecarboxylic acid methyl ester; Franckowiak et al. 1985) or FPL-64176 (2,5-Dimethyl-4-[2-(phenylmethyl)benzoyl]-1H-pyrrole-3-carboxlic acid methyl ester); Zheng et al., 1991) and their mechanical function and rates of SMA were recorded after a 5 min exposure to any concentration of slow calcium channel activator.
Atrial mechanical function was recorded at this time; the pacing stimulus then was stopped and rates of SMA were recorded. […]
Left atria (n=7) were paced at 3 Hz, treated with 120 μM ouabain (Illanes and Marshall, 1964), and any change in mechanical function was recorded at a new steady state, ˜10 min later. […]

[2] = tested on: rat left atria; assay: Reversal or prevention of 2-APB-induced SMA in superfused rat left atria; conditions: for effect on 2-APB-induced sporadic ectopic activity (SMA): titration after appearance of SMA, absence of pacing
Experimental: (A) Titration curve of ranolazine reversal of SMA in superfused left atrial appendage. Superfused appendages (n=7) were treated with 2-APB and following the appearance of SMA they were titrated with increasing concentrations of ranolazine for 3-5 min at any concentration. Rates of SMA in the absence of pacing were recorded. (B) Typical raw mechanical data for an appendage treated with 2-APB and then with 0, 10 or 80 μM ranolazine. All data are in the absence of pacing. […]
To test whether an anion transport inhibitor affected SMA, atria (n=7) were paced at 0.1 Hz in KH and exposed to 15 μM 2-APB. Following the appearance of SMA, they were titrated with 100 to 400 μM DIDS for 3 to 5 min at each concentration. Whether SMA occurred at the end of each titration period was recorded.
In these experiments, a 2-APB model system was used to simulate abnormal automaticity. Specifically, paced (0.1 Hz) superfused left atria were treated with 2-APB (20 μM) and the pacing stimulus was stopped after the appearance of SMA. SKF-96365 (25 μM) was then added to the superfusate and the effect on SMA was measured.
(§1) Additional experiments determined the concentration-dependence of SKF-96365 inhibtion of SMA. These experiments were performed as described above except that various concentrations of SKF-96365 were added to the left atrial superfusate (about 10-65 μM).
In these experiments, a 2-APB model system was used to simulate abnormal automaticity. Specifically, superfused left atria were exposed to 0 or to 50 μM SKF-96365 for 10 min. Following this pre-incubation, muscles were titrated with increasing concentrations of 2-APB (0-30 μM) and the rate of SMA was measured about 10 min later in the absence of pacing.

[3] = tested on: rat left atria; assay: Suppression of STA induced by 2-APB plus BayK 8644 or isoproterenol in left atria
Experimental: 3 Hz-paced left atria (n=9 per group) were superfused (i) in Krebs-Henseleit alone or (ii) they were treated with 20 μM 2-APB for 10 min, (iii) with 300 nM BayK 8644 for 10 min and with 20 μM 2-APB for 10 min, or (iv) they were treated with 300 nM BayK 8644 and 20 μM 2-APB for 10 min, then with 70 μM zatebradine (3-[3-[[2-(3,4-Dimethoxyphenyl)ethyl]methyl amino]propyl]-1,3,4,5-tetrahydro-7,8,-dimethoxy-2H-3-benzazepin-2-one hydrochloride) for 10 min (Baruscotti et al., 2005). Pacing was interrupted at these times and rates of SMA were recorded.
(§2) Left atria (n=9) were paced at 0.1 Hz, treated with 300 nM BayK 8644 for 5 min, then with 20 μM 2-APB for 10 min, and the pacing stimulus was stopped. These preparations then were incubated with six increasing concentrations of zatebradine (10-100 μM) for 3-5 min at each concentration, and rates of SMA were recorded. Untreated right atria (n=9) also were titrated with zatebradine and its effect on contraction frequency was recorded.
To test whether zatebradine affects left atrial force of contraction, two groups of left atria (n=9 per group) were paced at 3 Hz and treated with 300 nM BayK 8644. Five minutes later one group was incubated with six increasing concentrations of zatebradine (10-100 μM) for 3-5 min at each concentration, and forces of contraction were recorded. A second group was treated with BayK 8644 but not zatebradine, and forces of contraction were recorded at corresponding times.
(§3) To test whether zatebradine affects the SMA occurring in the presence of 2-APB and isoproterenol, left atria (n=7) were paced at 0.1 Hz, treated with 30 nM isoproterenol for 5 min, then with 20 μM 2-APB for 10 min, and the pacing stimulus was stopped. Rates of SMA were recorded, these left atria were exposed to 70 μM zatebradine for 10 min, and rates of SMA were recorded again. A group of right atria (n=7) also were exposed to 30 nM isoproterenol for 5 min and then to 70 μM zatebradine for 10 min. Right atrial contraction frequency was recorded at these two times.
(§4) To test whether ZD-7288, an If inhibitor structurally unrelated to zatebradine (Baruscotti et al., 2005; Sanders et al., 2006) affects the SMA occurring in the presence of 2-APB and BayK 8644, rat left atria (n=7) were treated with 300 nM BayK 8644 for 5 min, then with 20 μM 2-APB for 10 min, and the rates of ectopic activity were recorded. These atria then were incubated with six increasing concentrations of ZD-7288 (10-100 μM) for 3-5 min at each concentration, and the rates of SMA were recorded. Right atria (n=7) were titrated similarly with ZD-7288 (0-100 μM) and the change in their contraction frequency was recorded.
In these experiments, a 2-APB model system was used to simulate tachycardic abnormal automaticity. Specifically, superfused left atria were treated sequentially with 300 nM BayK 8644, an activator of voltage-dependent calcium entry, which loads myocytes with calcium, and then with 2-APB (20 μM) to activate the putative myocyte system for abnormal automaticity. […] SKF-96365 (10 μM) was added to the superfusate. SKF-96365 reversed STA in these left atria within 2-3 min and the muscle became quiescent in the absence of pacing (FIG. 34, “Rest”).
as §1, with “inhibition” for “inhibtion”, “STA.” for “SMA.”, “10-70” for “10-65”, “μM). Exposing left atria to various concentrations of SKF-96365 reversed STA (FIG. 35).” for “μM).”

[4] = tested on: rat right atria; assay: Right atrial spontaneous contraction frequency
Experimental: as §2, §3, §4

[5] = tested on: rat left atria; conditions: 25 nM ATX II

| Compound | ectopic activity / mechanical stability without 2-APB [1] | effect on left atrial force of contraction [1] | T0.5R (time to 50% relaxation) [1] | T0.9R (time to 90% relaxation) [1] | TPT (time to peak tension) [1] | Force Post [1] | Force Pre [1] | SMA Rate [1] | further results |
| --- | --- | --- | --- | --- | --- | --- | --- | --- | --- |
| COC(=O)C1=C(C)NC(C)=C([N+](=O)[O-])[C@H]1c1ccccc1C(F)(F)F [BayK 8644, (45)-1,4-Dihydro-2,6-dimethyl-5-nitro-4-[2-(trifluormethyl)phenyl]-3-pyridinecarboxylic acid methyl ester] | does not produce ectopic activity | increases their force of contraction | 35.2 msc | 73.2 msc | 54.1 msc | 83* mg/gww | 33 mg/gww | 0 SMEs per minute |  |
| O=S(=O)(O)c1cc(N=C=S)ccc1C=Cc1ccc(N=C=S)cc1S(=O)(=O)O [DIDS, 4,4′-diisothiocyanatostilbene-2,2′-disulfonic acid] |  |  |  |  |  |  |  |  | DIDS concentration that reversed SMA completely ([2]; 15 μM 2-APB, 0.1 Hz, 3 to 5 min at each DIDS concentration): > 300 µM |
| COC(=O)c1c(C)[nH]c(C)c1C(=O)c1ccccc1Cc1ccccc1 [FPL-64176, 2,5-Dimethyl-4-[2-(phenylmethyl)benzoyl]-1H-pyrrole-3-carboxlic acid methyl ester] | does not produce ectopic activity | increases their force of contraction | 35.3 msc | 73.3 msc | 52.8 msc | 68* mg/gww | 30 mg/gww | 0 SMEs per minute |  |
| CCN(c1ccccc1)c1cc(NC)[n+](C)c(C)n1.[Cl-] [ZD-7288] |  |  |  |  |  |  |  |  | effect on STA initiated by BayK 8644 and 2-APB ([3]; 300 nM BayK 8644 + 20 μM 2-APB, zatebradine 70 μM, ZD-7288 10-100 μM, SKF-96365 about 10-70 μM): decreases left atrial STA; effect on right atrial contraction frequency ([4]; ZD-7288 0-100 μM): decreases right atrial contraction frequency less robustly than zatebradine |
| O=C(NCC1CCCCN1)c1cc(OCC(F)(F)F)ccc1OCC(F)(F)F (stereo not drawn) [flecainide] |  |  |  |  |  |  |  |  | effect on 2-APB-induced sporadic ectopic activity (SMA) [2]: suppress this arrhythmic activity |
| C=C[C@@]1(C)CC(=O)[C@]2(O)[C@@]3(C)[C@@H](O)CCC(C)(C)[C@@H]3[C@H](O)[C@H](OC(C)=O)[C@@]2(C)O1 [forskolin] |  |  | 28.7^‡ msc | 58.4^‡ msc | 44.6* msc | 62* mg/gww | 21 mg/gww | 0 SMEs per minute |  |
| CC(C)NCC(O)c1ccc(O)c(O)c1 (stereo not drawn) [isoproterenol] | does not produce ectopic activity | increases their force of contraction | 29.3^‡ msc | 58.7^‡ msc | 45.0^‡ msc | 104* mg/gww | 31 mg/gww | 0 SMEs per minute | rate of spontaneous tachycardic activity in the absence of pacing ([1]; 22 μM 2-APB-treated appendage plus 30 nM isoproterenol, 30° C.): ~230 contractions/min; right atrial contraction frequency ([4]; 30 nM isoproterenol for 5 min): 276±11.4 contractions/min |
| CCN(CC)CC(=O)Nc1c(C)cccc1C [lidocaine] |  |  |  |  |  |  |  |  | effect on 2-APB-induced sporadic ectopic activity (SMA) [2]: suppress this arrhythmic activity |
| C[C@@H]1O[C@@H](O[C@H]2C[C@@H](O)[C@]3(CO)[C@H]4[C@H](O)C[C@]5(C)[C@@H](C6=CC(=O)OC6)CC[C@]5(O)[C@@H]4CC[C@]3(O)C2)[C@H](O)[C@H](O)[C@H]1O [ouabain] | does not produce ectopic activity; also recorded: does not affect their mechanical stability | increases their force of contraction; also recorded: doubles their force of contraction |  |  |  |  |  |  |  |
| COc1ccccc1OCC(O)CN1CCN(CC(=O)Nc2c(C)cccc2C)CC1 (stereo not drawn) [ranolazine, N-(2,6-dimethylphenyl)-2-[4-[2-hydroxy-3-(2-methoxyphenoxy)propyl]piperazin-1-yl]acetamide] |  |  |  |  |  |  |  |  | effect on tachycardic activity with high calcium loads ([3]; data not shown): suppresses, but does not completely prevent; effect on 2-APB-induced sporadic ectopic activity (SMA) [2]: prevent the sporadic ectopic activity; effect on 2-APB-induced sporadic ectopic activity (SMA) ([2]; listed as Ranolazine): blocks ectopic activity |
| COc1ccc(CCN(C)CCCC(C#N)(c2ccc(OC)c(OC)c2)C(C)C)cc1OC (stereo not drawn) [verapamil] |  |  |  |  |  |  |  |  | triggered events after exposure to verapamil ([5]; 10 μM verapamil for 5 min, expanded scale): continued presence of triggered events; effect on left atrial force of contraction / mechanical performance (titration) ([5]; 1 Hz-paced, ~5 min at each concentration): markedly decreased contractile force; effect on the rate of triggered activity (titration) ([5]; verapamil 2 to 20 μM, ~5 min at each concentration): did not affect the rate of triggered activity |
| Anemonia sulcata Toxin II [ATX II] |  |  |  |  |  |  |  |  | induction of triggered activity (contractile doublets) ([5]; left atria paced at 1 Hz): triggered activity is induced |
| ryanodine | no STA occurs | Time-dependent decreases in force of contraction |  |  |  |  |  |  |  |
